{
  "source": "patent US20240197664A1",
  "about": "“SIRTUIN OR KLOTHO ACTIVATOR OR EXPRESSION ENHANCER, NAD+ INCREASING AGENT, AND SENOLYTIC AGENT” (WAKUNAGA PHARMACEUTICAL CO., LTD., priority 2021, published 2024)",
  "key": {"[1]": {"test_system": "SIRT1 protein", "test": "SIRT1 protein increasing action (in vivo), Western Blotting of hippocampus", "design": "species or system senescence-accelerated mice SAMP8", "conditions": "repeated oral administration for two weeks", "source_text": "(§1) Animals for evaluating the biological activity were bred as follows. Senescence-accelerated mice SAMP8 (male) for testing were purchased from Japan SLC, Inc. After purchase, the animals were acclimatized for one week and used as animals for the evaluation tests.\n(§2) After repeated oral administration of the sample prepared in the above (1) (a) to animals for the evaluation tests in the above (2) for two weeks, hippocampi of such animals were excised. After the hippocampi were crushed using an automatic tissue crusher, the cells were lysed with a RIPA cell lysis buffer manufactured by Millipore Corporation which was diluted 10-fold with purified water added with combined protease/phosphatase inhibitors manufactured by Thermo Fisher Scientific K.K., and then centrifuged (10,000 rpm, 10 min, 4° C.), and the supernatant was used as a cell extract. The cell extract was used for analysis by Western Blotting according to a conventional method. An anti-SIRT1 antibody (manufactured by Biolegend) and an anti-β-actin antibody (manufactured by Fujifilm Wako Pure Chemical Corporation) were used as antibodies."}, "[2]": {"target": "T1, SIRT1 (Mus musculus, UniProt Q923E4)", "T1 construct": "from tissue; host or cells: cerebral cortex of SAMP8 mice", "T1 sequence (Q923E4 1-737)": "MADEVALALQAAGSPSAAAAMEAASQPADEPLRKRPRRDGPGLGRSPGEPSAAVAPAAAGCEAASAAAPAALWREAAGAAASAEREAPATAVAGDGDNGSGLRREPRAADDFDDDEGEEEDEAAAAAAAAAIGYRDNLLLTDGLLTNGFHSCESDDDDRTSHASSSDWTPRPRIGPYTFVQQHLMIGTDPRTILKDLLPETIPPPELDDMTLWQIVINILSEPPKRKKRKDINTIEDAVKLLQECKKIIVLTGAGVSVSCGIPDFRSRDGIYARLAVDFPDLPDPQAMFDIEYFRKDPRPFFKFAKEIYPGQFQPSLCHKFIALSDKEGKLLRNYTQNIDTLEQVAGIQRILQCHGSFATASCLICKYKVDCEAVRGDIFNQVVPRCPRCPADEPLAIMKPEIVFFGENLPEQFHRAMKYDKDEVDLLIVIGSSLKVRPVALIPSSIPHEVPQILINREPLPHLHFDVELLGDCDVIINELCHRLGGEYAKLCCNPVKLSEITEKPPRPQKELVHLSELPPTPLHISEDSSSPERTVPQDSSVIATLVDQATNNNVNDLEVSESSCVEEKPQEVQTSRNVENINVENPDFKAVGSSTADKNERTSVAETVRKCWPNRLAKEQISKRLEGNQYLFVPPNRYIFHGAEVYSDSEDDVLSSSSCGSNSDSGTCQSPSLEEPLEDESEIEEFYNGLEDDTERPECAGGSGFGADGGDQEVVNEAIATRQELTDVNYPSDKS", "test": "SIRT1 activation action (in vivo), SIRT1_GLO kit on cerebral cortex lysate", "design": "species or system senescence-accelerated mice SAMP8", "conditions": "single oral dose, 180 minutes after administration, vs control group", "procedure": "as §1\nA SIRT1_GLO kit manufactured by Promega Corporation was purchased to measure the sirtuins activity. A lysate of the cerebral cortex was placed in a 96-well plate, various reaction reagents were added, and then luminous intensity of luciferase was measured by a plate reader.\nA single dose of the sample prepared in the above (1) (a) was orally administrated to animals for the evaluation tests in the above (2), and then cerebral cortices of such animals were extracted 15, 30, 60, and 180 minutes later. The cerebral cortices were crushed using an automatic tissue crusher and lysed by adding a cell dissolution liquid. Centrifugation was performed and the sirtuins activity in the supernatant thereof was measured."}, "[3]": {"test_system": "p53 protein", "test": "Suppression of cellular senescence marker p53 protein in the hippocampus (in vivo), Western Blotting", "design": "species or system senescence-accelerated mice SAMP8", "conditions": "repeated oral administration for six weeks", "source_text": "as §1\nas §2, with “six” for “two”, “a protease inhibitor and a phosphatase inhibitor” for “combined protease/phosphatase inhibitors”, “Roche,” for “Thermo Fisher Scientific K.K.,”, “anti-p53” for “anti-SIRT1”, “Proteintech Group, Inc.)” for “Biolegend)”, “Medical and Biological Laboratories Co., Ltd.)” for “Fujifilm Wako Pure Chemical Corporation)”"}, "[4]": {"test_system": "lipocalin-2 (NGAL)", "test": "Inhibitory action on kidney injuries (in vivo), NGAL Western Blotting", "design": "species or system senescence-accelerated mice SAMP8", "conditions": "repeated oral administration for two weeks", "source_text": "as §1\n(§3) After repeated oral administration of the sample prepared in the above (1) (a) to the animals for the evaluation tests in the above (2) for two weeks, kidneys of such animals were excised. After the kidneys were crushed using an automatic tissue crusher, the cells were lysed with an RIPA cell lysis buffer manufactured by Millipore Corporation which was diluted 10-fold with purified water added with a protease inhibitor and a phosphatase inhibitor manufactured by Roche and then centrifuged (10,000 rpm, 10 min, 4° C.), and the supernatant was used as a cell extract. The cell extract was used for analysis by Western Blotting according to a conventional method. A kidney injury molecule (KIM-1) antibody (manufactured by R&D System) and a lipocalin-2 (NGAL) antibody (manufactured by Proteintech Group, Inc.), KIM-1 and NGAL being markers of kidney injuries, and an anti-GAPDH antibody (manufactured by Fujifilm Wako Pure Chemical Corporation) were used as antibodies."}, "[5]": {"test_system": "Klotho gene", "test": "Enhancement of Klotho gene expression in the kidney (in vivo), real-time PCR", "design": "species or system senescence-accelerated mice SAMP8", "conditions": "repeated oral administration for two weeks", "source_text": "as §1\n(§4) After repeated oral administration of the sample prepared in the above (1) (a) to the animals for the evaluation tests in the above (2) for two weeks, kidneys of such animals were excised. The kidneys were crushed using an automatic tissue crusher, and then RNA was extracted using a TRIzol solution manufactured by Thermo Fisher Scientific K.K. cDNA was synthesized using PRIMEScript RT reagent Kit with gEraser manufactured by Takara. The synthesized cDNA was subjected to real-time PCR using KAPA SYBR Fast qPCR kit manufactured by Nippon Genetics Co., Ltd. Results are shown in FIG. 5."}, "[6]": {"test_system": "NAD+", "test": "NAD+ amount increasing action (in vivo), NAD+/NADH Assay Kit", "design": "species or system senescence-accelerated mice SAMP8", "conditions": "single oral dose (180 minutes later) and mixed with food for one month; cerebral cortices", "procedure": "as §1\nA single dose of the sample prepared in (1) (a) was orally administered to animals for the evaluation tests in the above (2), and then cerebral cortices of such animals were excised 180 minutes later. In addition, the sample prepared in the above (1) (a) was mixed with food and fed to animals for the evaluation tests in the above (2) for one month, and then cerebral cortices of such animals were excised. The NAD^+ amount in the cerebral cortices was measured using NAD^+/NADH Assay Kit manufactured by Dojindo Laboratories."}, "[7]": {"test_system": "kidney injury molecule (KIM-1)", "test": "Inhibitory action on kidney injuries (in vivo), KIM-1 Western Blotting", "design": "species or system senescence-accelerated mice SAMP8", "conditions": "repeated oral administration for two weeks", "source_text": "as §1, §3"}, "[8]": {"test_system": "senescence-accelerated mice SAMP8", "test": "Cognitive/memory retention action (in vivo), passive avoidance test", "conditions": "mixed with food for four months, holding trial after two months", "procedure": "as §1\nThe sample prepared in the above (1) (a) was mixed with food and fed to animals for evaluation test in the above (2) for four months, and then a passive avoidance test was performed. The passive avoidance test is a test utilizing a habit that a mouse prefers a dark place, and on Day 1, a mouse already in a bright room was moved to a dark room while receiving an electrical shock (50 V/1 second), and the time it took for the mouse to enter the dark room was taken as response latency of an acquisition trial. After two months, the mouse was put in the bright room again and the time it took to move to the dark room (the response latency of a holding trial) was used as an index of memory."}, "[9]": {"test_system": "p21 gene", "test": "Suppression of senescent cell marker p21 gene expression in the kidney (in vivo), real-time PCR", "design": "species or system senescence-accelerated mice SAMP8", "conditions": "repeated oral administration for two weeks", "source_text": "as §1\n(§5) After repeated oral administration of the sample prepared in the above (1) (a) to the animals for the evaluation tests in the above (2) for two weeks, kidneys of such animals were excised. The kidneys were crushed using an automatic tissue crusher, and then RNA was extracted using a TRIzol solution manufactured by Thermo Fisher Scientific K.K.\n(§6) CDNA was synthesized using PRIMEScript RT reagent Kit with gEraser manufactured by Takara. The synthesized cDNA was subjected to real-time PCR using KAPA SYBR Fast qPCR kit manufactured by Nippon Genetics Co., Ltd. Results are shown in FIG. 6."}, "[10]": {"test_system": "SIRT1 gene", "test": "Enhancement of SIRT1 gene expression in the kidney (in vivo), real-time PCR", "design": "species or system senescence-accelerated mice SAMP8", "conditions": "repeated oral administration for two weeks", "source_text": "as §1, §4"}, "[11]": {"test_system": "p16 gene", "test": "Suppression of senescent cell marker p16 gene expression in the kidney (in vivo), real-time PCR", "design": "species or system senescence-accelerated mice SAMP8", "conditions": "repeated oral administration for two weeks", "source_text": "as §1, §5, §6"}},
  "data": [
    {"compound": "CC=CSCC(N)C(=O)O", "note": "(centres unmarked) [S-1-propenylcysteine]", "values": [
      {"measurement": "SIRT1 protein mass in the hippocampus", "setting": "[1]", "value": "increased"},
      {"measurement": "Sirtuin activity in cerebral cortex", "setting": "[2]", "value": "increased"},
      {"measurement": "p53 protein mass in the hippocampus", "setting": "[3]", "value": "reduced"},
      {"measurement": "NGAL protein mass in the kidney", "setting": "[4]", "value": "reduced"},
      {"measurement": "expression of Klotho gene in the kidney", "setting": "[5]", "value": "increased"},
      {"measurement": "NAD+ amount", "setting": "[6]", "value": "increased"},
      {"measurement": "KIM-1 protein mass in the kidney", "setting": "[7]", "value": "reduced"},
      {"measurement": "aging-related decline in cognitive and memory functions (response latency of holding trial)", "setting": "[8]", "value": "ameliorated"},
      {"measurement": "cells expressing p21 gene in the kidneys", "setting": "[9]", "value": "reduced"},
      {"measurement": "expression of SIRT1 gene in the kidney", "setting": "[10]", "value": "increased"},
      {"measurement": "cells expressing p16 gene in the kidneys", "setting": "[11]", "value": "reduced"}
    ]}
  ]
}
